# From article PMC7083565, “In vitro metabolism, reaction phenotyping, enzyme kinetics, CYP inhibition and induction potential of ataluren” (Pharmacology Research & Perspectives, 2020)
# pIC50: −log10 of the molar value.
# Key:
# UGT1A7 = molecular target: T1, UGT1A7 (Homo sapiens, UniProt Q9HAW7); assay: Reaction phenotyping with recombinant human UGT enzymes: UGT1A7; format: in vitro ADME; conditions: rUGT1A7 0.25 mg protein/mL, 10 μmol/L, 60 minutes, n = 2
# T1 construct: purchased BD Biosciences; host or cells: baculovirus-infected insect cells
# T1 sequence (Q9HAW7 26-530): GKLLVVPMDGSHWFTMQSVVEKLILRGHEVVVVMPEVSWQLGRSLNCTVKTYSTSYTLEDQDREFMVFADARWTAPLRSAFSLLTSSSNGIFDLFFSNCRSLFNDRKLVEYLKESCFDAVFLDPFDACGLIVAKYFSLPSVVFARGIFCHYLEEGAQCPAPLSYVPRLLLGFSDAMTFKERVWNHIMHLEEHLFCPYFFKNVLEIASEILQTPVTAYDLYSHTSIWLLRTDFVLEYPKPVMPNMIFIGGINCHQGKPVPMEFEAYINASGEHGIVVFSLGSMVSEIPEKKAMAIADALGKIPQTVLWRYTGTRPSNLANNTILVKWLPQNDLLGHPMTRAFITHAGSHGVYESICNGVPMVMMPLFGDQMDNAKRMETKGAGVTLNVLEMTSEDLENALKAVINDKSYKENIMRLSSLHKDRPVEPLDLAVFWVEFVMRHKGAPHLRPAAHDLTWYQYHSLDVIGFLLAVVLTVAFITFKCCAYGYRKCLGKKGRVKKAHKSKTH
# Procedure: Ataluren at 10 μmol/L, was incubated (n = 2) with recombinant human uridine diphosphate glucuronosyltransferase (rUGT) enzymes: rUGTs 1A1, 1A3, 1A4, 1A6, 1A7, 1A8, 1A9, 1A10, 2B4, 2B7, 2B15, and 2B17 at 0.25 mg protein/mL. Incubations were conducted in duplicate at 37°C. The incubation mixture (0.2 mL, final volume with 1% methanol) consisted of Tris‐HCl buffer (100 mmol/L, pH 7.7 at 37°C), MgCl2 (10 mmol/L), EDTA (1 mmol/L), saccharic acid 1,4‐lactone (0.1 mmol/L), and UDPGA (8 mmol/L). […] Samples were subjected to centrifugation (920 g for 10 minutes at 10°C) and the supernatant fractions were analyzed by LC‐MS/MS to quantify the formation of ataluren‐O‐1β‐acyl glucuronide and loss of ataluren. […] The ataluren acyl glucuronide formation rate after 60 minutes incubation was calculated using the amount of metabolite formed (pmol) divided by the protein amount in the incubation sample (0.05 mg) and the incubation time (60 minutes).
# Quantification of ataluren loss and ataluren‐O‐1β‐acyl glucuronide formation was carried out with an LC‐MS/MS system, which consisted of two Shimadzu LC‐10ADvp pumps, a SPD10‐AVP UV/Vis detector, a Shimadzu SILHTA autosampler, a Shimadzu DGU‐14A degasser, and a Sciex API 4000 QTRAP mass spectrometer equipped with a Turbo Ionspray ionization source that operated in positive ionization mode. […]
# CYP2D6 = molecular target: T2, CYP2D6 (Homo sapiens, UniProt P10635); assay: CYP inhibition in pooled human liver microsomes: CYP2D6; format: in vitro ADME; conditions: CYP2D6, HLM, estimated, concentrations up to 400 μmol/L
# T2 construct: tissue XenoTech LLC, Celsis-In Vitro Technologies, or Tissue Transformation Technologies; host or cells: pooled human liver microsomes
# Procedure: The final concentration of each probe substrate was near the experimentally determined Km value for the indicated enzyme. Ataluren or prototypical CYP inhibitors (positive controls) was incubated (n = 3) with probe substrates and HLM in 100 mmol/L phosphate buffer (pH 7.4) in a total volume of approximately 0.25 mL, and the reactions were initiated by the addition of 1 mmol/L NADPH at 37°C. The reactions were carried out using previously established conditions to ensure linearity with respect to protein concentration and incubation time (Table S1). Incubations were stopped with the addition of ice‐cold acetonitrile. Metabolite formation in incubations with test compound and control inhibitors was assessed with LC‐MS/MS methods for each of the reaction products as described in Table S2. […] After 7 minutes incubation at 37°C, the reaction was stopped by the addition of ice‐cold acetonitrile, followed by membrane plate filtration. The filtrates were used for LC‐MS/MS analysis. […] IC50 values were determined by nonlinear regression with GraphPad Prism 5 using the following four‐parameter sigmoidal‐logistic IC50 equation: Fit=background+range-background/[1+I/IC50^slope]
# Where, I is the inhibitor concentration, and background was set to 0 and range to 100, as percent of control values are utilized. K i was determined by nonlinear regression with GraphPad Prism 5 using best fit model.
# T2 sequence (P10635 whole entry): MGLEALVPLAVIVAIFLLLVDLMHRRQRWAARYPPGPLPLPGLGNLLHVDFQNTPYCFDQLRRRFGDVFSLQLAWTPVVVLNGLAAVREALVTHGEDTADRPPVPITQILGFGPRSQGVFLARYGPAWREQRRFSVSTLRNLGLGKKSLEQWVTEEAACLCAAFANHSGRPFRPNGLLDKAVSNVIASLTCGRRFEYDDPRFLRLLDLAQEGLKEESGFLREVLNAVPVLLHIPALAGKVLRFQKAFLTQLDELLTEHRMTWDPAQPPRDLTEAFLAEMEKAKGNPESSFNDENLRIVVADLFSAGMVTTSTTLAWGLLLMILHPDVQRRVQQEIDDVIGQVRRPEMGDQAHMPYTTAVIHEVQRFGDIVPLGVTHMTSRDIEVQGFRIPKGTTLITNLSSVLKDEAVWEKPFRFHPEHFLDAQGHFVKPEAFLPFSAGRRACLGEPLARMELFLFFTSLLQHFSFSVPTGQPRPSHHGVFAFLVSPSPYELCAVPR
smiles,measurement,setting,value
"O=C(O)c1cccc(-c2noc(-c3ccccc3F)n2)c1 [ataluren, Ataluren]",ataluren loss,UGT1A7,6.2%
same,pIC50,CYP2D6,< 3.40
